In patent US9133235B2, “Macrocyclic antagonists of the motilin receptor for treatment of gastrointestinal dysmotility disorders” (Ocera Therapeutics, Inc., priority 2006, dated 2015):

Assays:
human motilin receptor [1] = target: T1, human motilin receptor (Homo sapiens, UniProt O43193); assay: Aequorin functional assay (motilin receptor); type: cell-based; parameters: host or cells: CHO-K1 cells co-expressing Gα16 and mitochondrially targeted Aequorin; conditions: for IC50: functional activity, antagonist testing vs motilin 0.5 nM (EC80)
T1 sequence (O43193 whole entry): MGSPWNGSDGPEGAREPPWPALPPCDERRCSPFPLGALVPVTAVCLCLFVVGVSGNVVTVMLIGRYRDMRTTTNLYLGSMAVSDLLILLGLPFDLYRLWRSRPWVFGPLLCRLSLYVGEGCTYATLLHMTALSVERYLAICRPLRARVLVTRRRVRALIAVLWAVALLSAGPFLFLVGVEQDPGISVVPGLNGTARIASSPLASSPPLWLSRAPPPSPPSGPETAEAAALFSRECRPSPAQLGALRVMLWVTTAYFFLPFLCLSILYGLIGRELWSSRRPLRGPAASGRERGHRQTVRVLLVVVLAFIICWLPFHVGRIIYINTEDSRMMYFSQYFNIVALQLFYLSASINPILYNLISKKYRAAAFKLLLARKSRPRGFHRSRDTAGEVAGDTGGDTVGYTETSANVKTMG
Protocol: B. Aequorin Functional Assay (Motilin Receptor)
The evaluation of compounds of the invention for functional activity can be conducted according to literature methods or as described below. (Carreras, C. W.; Siani, M. A.; Santi, D. V.; Dillon, S. B. Anal. Biochem. 2002, 300, 146-151.)
• Membranes were prepared using AequoScreen™ (EUROSCREEN, Belgium) cell lines expressing the human motilin receptor (cell line ES-380-A; receptor accession #AF034632). This cell line is constructed by transfection of the human motilin receptor into CHO-K1 cells co-expressing Gα16 and the mitochondrially targeted Aequorin (Ref. #ES-WT-A5). • Motilin (Bachem, #H-4385) • Assay buffer: DMEM-F12 (Dulbeccoe's Modified Eagles Medium) with 15 mM HEPES and 0.1% BSA (pH 7.0) • Coelenterazine (Molecular Probes™, Leiden, The Netherlands) Final Test Concentrations (N=5) for Compounds: • 10, 3.16, 1.0, 0.316, 0.10 μM. Compound Handling:
Compounds were provided as dry films at a quantity of approximately 1.2 μmol in pre-formatted 96-well plates. Compounds were dissolved in 100% DMSO at a concentration of 10 mM and stored at −20° C. until further use. Daughter plates were prepared at a concentration of 500 μM in 30% DMSO with 0.1% BSA and stored at −20° C. until testing. On the test day, compounds were allowed to thaw at room temperature and than diluted in assay buffer according to the desired test concentrations. Under these conditions, the maximum final DMSO concentration in the assay was 0.6%.
Cells are collected from culture plates with Ca^2+ and Mg^2+-free phosphate buffered saline (PBS) supplemented with 5 mM EDTA, pelleted for 2 minutes at 1000×g, resuspended in assay buffer (see above) at a density of 5×10^6 cells/mL and incubated overnight in the presence of 5 μM coelenterazine. After loading, cells were diluted with assay buffer to a concentration of 5×10^5 cells/mL.
For agonist testing, 50 μL of the cell suspension was mixed with 50 μL of the appropriate concentration of test compound or motilin (reference agonist) in 96-well plates (duplicate samples). The emission of light resulting from receptor activation was recorded using the Functional Drug Screening System 6000 ‘FDSS 6000’ (Hamamatsu Photonics K. K., Japan).
For antagonist testing, an approximate EC80 concentration of motilin (i.e. 0.5 nM; 100 μL) was injected onto the cell suspension containing the test compounds (duplicate samples) 15-30 minutes after the end of agonist testing and the consequent emission of light resulting from receptor activation was measured as described in the paragraph above.
Results are expressed as Relative Light Units (RLU). Concentration response curves were analyzed using GraphPad™ Prism® (GraphPad Software, San Diego, Calif.) by non-linear regression analysis (sigmoidal dose-response) based on the equation E=Emax/(1+EC50/C)n where E is the measured RLU value at a given agonist concentration (C), Emax is the maximal response, EC50 is the concentration producing 50% stimulation and n is the slope index. For agonist testing, results for each concentration of test compound were expressed as percent activation relative to the signal induced by motilin at a concentration equal to the EC80 (i.e. 0.5 nM). For antagonist testing, results for each concentration of test compound were expressed as percent inhibition relative to the signal induced by motilin at a concentration equal to the EC80 (i.e. 0.5 nM).

human motilin receptor [2] = target: T1, human motilin receptor; assay: Competitive radioligand binding assay (motilin receptor); parameters: purchased PerkinElmer (SignalScreen) 6110544; host or cells: CHO cells, stably transfected; membranes; conditions: [125I]-motilin competition, membranes of CHO cells with human motilin receptor; read-out: Ki
Protocol: A. Competitive Radioligand Binding Assay (Motilin Receptor)
The competitive binding assay at the human motilin receptor was carried out analogously to assays described in the literature.
• Membranes were prepared from CHO cells stably transfected with the human motilin receptor and utilized at a quantity of 1.5 μg/assay point. [PerkinElmer™ SignalScreen Product #6110544] • [^125I]-Motilin (PerkinElmer, #NEX-378); final concentration: 0.04-0.06 nM • Motilin (Bachem™, #H-4385); final concentration: 1 μM • Multiscreen Harvest plates-GF/B (Millipore™, #MAHFB1H60) • Deep-well polypropylene titer plate (Beckman Coulter™, #267006) • TopSeal-A (PerkinElmer, #6005185) • Bottom seal (Millipore, #MATAH0P00) • MicroScint-0 (PerkinElmer, #6013611) • Binding Buffer: 50 mM Tris-HCl (pH 7.4), 10 mM MgCl2, 1 mM EDTA, 0.1% BSA Assay Volumes: • 150 μL of membranes diluted in binding buffer • 10 μL of compound diluted in binding buffer • 10 μL of radioligand ([^125I]-Motilin) diluted in binding buffer Final Test Concentrations (N=11) for Compounds: • 10, 5.0, 2.0, 1.0, 0.50, 0.20, 0.10, 0.050, 0.020, 0.010, 0.0050 μM. Compound Handling:
Compounds were provided frozen on dry ice at a stock concentration of 10 mM diluted in 100% DMSO and stored at −20° C. until the day of testing. On the test day, compounds were allowed to thaw at room temperature and than diluted in assay buffer according to the desired test concentrations. Under these conditions, the maximum final DMSO concentration in the assay was 0.5%.
In deep-well plates, diluted cell membranes (1.5 μg/mL) are combined with 10 μL of either binding buffer (total binding, N=5), 1 μM motilin (non-specific binding, N=3) or the appropriate concentration of test compound. The reaction is initiated by addition of 10 μL of [^125I]-motilin (final conc. 0.04-0.06 nM) to each well. Plates are sealed with TopSeal-A, vortexed gently and incubated at room temperature for 2 hours. The reaction is arrested by filtering samples through pre-soaked (0.3% polyethyleneimine, 2 h) Multiscreen Harvest plates using a Tomtec Harvester, washed 9 times with 500 μL of cold 50 mM Tris-HCl (pH 7.4), and than plates are air-dried in a fumehood for 30 minutes. A bottom seal is applied to the plates prior to the addition of 25 μL of MicroScint-0 to each well. Plates are than sealed with TopSeal-A and counted for 30 sec per well on a TopCount Microplate Scintillation and Luminescence Counter (PerkinElmer) where results are expressed as counts per minute (cpm).
Data are analyzed by GraphPad™ Prism® (GraphPad Software, San Diego, Calif.) using a variable slope non-linear regression analysis.
[formula] where total and non-specific binding represent the cpm obtained in the absence or presence of 1 μM motilin, respectively.

IC50 (human motilin receptor [1])	Ki (human motilin receptor [2])	Structure (SMILES)	approximate EC80 concentration (human motilin receptor [1]; reference agonist)
≤ 0.1 µM	≤ 0.1 µM	CC(C)[C@H]1NC(=O)[C@@H](Cc2cccc(C(F)(F)F)c2)NCCOc2ccccc2C[C@@H](C)CNC(=O)[C@H](CNC(=N)N)NC1=O [Compound 504]	
≤ 0.01 µM	≤ 0.01 µM	CC(C)[C@H]1NC(=O)[C@@H](Cc2cccc(C(F)(F)F)c2)NCCOc2ccccc2C[C@H](C)CNC(=O)[C@H](CNC(=N)N)NC1=O [Compound 505]	
≤ 0.1 µM	≤ 0.1 µM	CCC[C@@H]1NC(=O)[C@@H](C(C)C)NC(=O)[C@@H](Cc2cccc(F)c2)N[C@H](C)COc2ccccc2CCCNC1=O [Compound 513]	
≤ 0.1 µM		CC(C)[C@H]1NC(=O)[C@@H](Cc2cccc(Cl)c2)N[C@@H](C)COc2ccccc2CCCNC(=O)[C@H](CNC(=N)N)NC1=O [Compound 516]	
≤ 0.01 µM	≤ 0.1 µM	CC(C)[C@H]1NC(=O)[C@@H](Cc2cccc(F)c2)N[C@@H](C)COc2ccccc2CCCNC(=O)[C@H](CNc2ncccn2)NC1=O [Compound 535]	
≤ 0.1 µM	≤ 0.1 µM	Cc1cnnn1C[C@@H]1NC(=O)[C@@H](C(C)C)NC(=O)[C@@H](Cc2cccc(F)c2)N[C@@H](C)COc2ccccc2CCCNC1=O [Compound 536]	
≤ 0.001 µM	≤ 0.01 µM	CC(C)[C@H]1NC(=O)[C@@H](Cc2cccc(F)c2)N[C@@H](C)COc2ccccc2CCCNC(=O)[C@H](CN=[N+]=[N-])NC1=O [Compound 538]	
≤ 0.001 µM	≤ 0.01 µM	CC(C)[C@H]1NC(=O)[C@@H](Cc2cccc(C(F)(F)F)c2)NCCOc2ccccc2CCCNC(=O)[C@H](Cn2cccc2)NC1=O [Compound 539]	
≤ 0.1 µM	≤ 0.1 µM	CC(C)[C@H]1NC(=O)[C@@H](Cc2cccc(F)c2)N[C@@H](C)COc2ccccc2CCCNC(=O)[C@H](CN)NC1=O [Compound 543]	
≤ 0.001 µM	≤ 0.01 µM	CC(C)[C@H]1NC(=O)[C@@H](Cc2cccc(F)c2)N[C@@H](C)COc2ccccc2C[C@H](C)CNC(=O)[C@H](CN)NC1=O [Compound 544]	
≤ 0.01 µM	≤ 0.01 µM	CNC[C@@H]1NC(=O)[C@@H](C(C)C)NC(=O)[C@@H](Cc2cccc(C(F)(F)F)c2)NCCOc2ccccc2CCCNC1=O [Compound 547]	
≤ 0.001 µM	≤ 0.01 µM	CC(C)[C@H]1NC(=O)[C@@H](Cc2cccc(F)c2)N[C@@H](C)COc2ccccc2C[C@H](C)CNC(=O)[C@H](CNc2ncccn2)NC1=O [Compound 550]	
≤ 0.001 µM	≤ 0.01 µM	C[C@H]1COc2ccccc2CCCNC(=O)[C@H](CC2CC2)NC(=O)[C@@H](C2CC2)NC(=O)[C@@H](Cc2cccc(F)c2)N1 [Compound 555]	

Further lines, the molecule ahead of its results:

Structure (SMILES)	IC50 (human motilin receptor [1])	Ki (human motilin receptor [2])	approximate EC80 concentration (human motilin receptor [1]; reference agonist)
CC(C)[C@H]1NC(=O)[C@@H](Cc2cccc(C(F)(F)F)c2)NCCOc2ccccc2CCCNC(=O)[C@H](CNC(=N)N)NC1=O [Compound 503]	≤ 0.1 µM		
CC(C)[C@H]1NC(=O)[C@@H](Cc2cccc(F)c2)N[C@@H](C)COc2ccccc2CCCNC(=O)[C@H](CN(C)C)NC1=O [Compound 529]	≤ 0.01 µM	≤ 0.01 µM	
CC(C)[C@H]1NC(=O)[C@@H](Cc2cccc(C(F)(F)F)c2)NCCOc2ccccc2CCCNC(=O)[C@H](CN2CCCC2)NC1=O [Compound 532]	≤ 0.1 µM	≤ 0.01 µM	
CC(C)[C@H]1NC(=O)[C@@H](Cc2cccc(F)c2)N[C@@H](C)COc2ccccc2CCCNC(=O)[C@H](CN2CCCC2)NC1=O [Compound 533]	≤ 0.01 µM	≤ 0.1 µM	
CC(C)[C@H]1NC(=O)[C@@H](Cc2cccc(F)c2)N[C@@H](C)COc2ccccc2CCCNC(=O)[C@H](CN2CCOCC2)NC1=O [Compound 534]	≤ 0.01 µM	≤ 0.1 µM	
CC(C)[C@H]1NC(=O)[C@@H](Cc2cccc(C(F)(F)F)c2)NCCOc2ccccc2CCCNC(=O)[C@H](CN=[N+]=[N-])NC1=O [Compound 537]	≤ 0.001 µM	≤ 0.01 µM	
CC(C)[C@H]1NC(=O)[C@@H](Cc2cccc(F)c2)N[C@@H](C)COc2ccccc2CCCNC(=O)[C@H](Cn2cccc2)NC1=O [Compound 540]	≤ 0.001 µM	≤ 0.01 µM	
CC(C)[C@H]1NC(=O)[C@@H](Cc2cccc(C(F)(F)F)c2)NCCOc2ccccc2CCCNC(=O)[C@H](CN)NC1=O [Compound 542]	≤ 0.01 µM	≤ 0.1 µM	
CC(C)[C@H]1NC(=O)[C@@H](Cc2cccc(F)c2)N[C@@H](C)COc2ccccc2C[C@H](C)CNC(=O)[C@H](CN=[N+]=[N-])NC1=O [Compound 545]	≤ 0.001 µM	≤ 0.01 µM	
CNC[C@@H]1NC(=O)[C@@H](C(C)C)NC(=O)[C@@H](Cc2cccc(F)c2)N[C@@H](C)COc2ccccc2C[C@H](C)CNC1=O [Compound 546]	≤ 0.001 µM	≤ 0.01 µM	
CNC[C@@H]1NC(=O)[C@@H](C(C)C)NC(=O)[C@@H](Cc2cccc(F)c2)N[C@@H](C)COc2ccccc2CCCNC1=O [Compound 548]	≤ 0.01 µM	≤ 0.01 µM	
CC[C@H](C)[C@H](NC(=O)[C@@H]1CCCN1C(=O)[C@@H](NC(=O)[C@@H](N)Cc1ccccc1)C(C)C)C(=O)N[C@@H](Cc1ccccc1)C(=O)N[C@H](C(=O)N[C@@H](Cc1ccc(O)cc1)C(=O)NCC(=O)N[C@@H](CCC(=O)O)C(=O)N[C@@H](CC(C)C)C(=O)N[C@@H](CCC(N)=O)C(=O)N[C@@H](CCCNC(=N)N)C(=O)N[C@@H](CCSC)C(=O)N[C@@H](CCC(N)=O)C(=O)N[C@@H](CCC(=O)O)C(=O)N[C@@H](CCCCN)C(=O)N[C@@H](CCC(=O)O)C(=O)N[C@@H](CCCNC(=N)N)C(=O)N[C@@H](CC(N)=O)C(=O)N[C@@H](CCCCN)C(=O)NCC(=O)N[C@@H](CCC(N)=O)C(=O)O)[C@@H](C)O [motilin]			~0.0005 µM
